The compounds below were run against Casein kinase II subunit alpha/beta (Homo sapiens, UniProt P68400) (assay: In Vitro Kinase Assay). Conditions: pH 7.5; 30 °C.
Method: Each test was performed twice in a total reaction volume of 30 μL, containing 6 μg of peptide substrate RRRDDDSDDD (New England Biolabs (UK) Ltd., Herts, UK); 10 units of recombinant human CK2 holoenzyme (New England Biolabs); 50 μM ATP and γ-labeled 32P ATP, diluted to specific activity 100 μCi/mM; CK2 buffer (20mM Tris-HCl, pH 7.5; 50mM KCl; 10mM MgCl2) and inhibitor in varying concentrations. Incubation time was 20 min at 30 °C. The reaction was stopped by adding an equal volume of 10% o-phosphoric acid and the reaction mixture was loaded onto 20-mm discs of phosphocellulose paper (Whatman plc, Kent, UK). Discs were washed three times with 1% o-phosphoric acid solution, air-dried at room temperature, and counted by the Cherenkov method in a beta-counter (LKB). As negative control an equal volume of DMSO was added to the reaction mixture. Quercetin, a known CK2 inhibitor, was used as an inhibition positive control. The final concentration of quercetin was 0.55 μM (which inhibited CK2 activity by 50%).

| IC50 | SMILES |
| --- | --- |
| 19.5 µM | CC1CS(=O)(=O)N(c2ccc(C(=O)Nc3ccc(C(=O)O)c(O)c3)cc2)C1=O (configuration not stated) [2-hydroxy-4-{[4-(4-methyl-1,1-dioxido-3-oxoisothiazolidin-2-yl)benzoyl]amino}benzoic acid (27)] |
| > 30 µM | CC1CS(=O)(=O)N(c2ccc(C(=O)Nc3ccc(O)c(C(=O)O)c3)cc2)C1=O (configuration not stated) [2-hydroxy-5-{[4-(4-methyl-1,1-dioxido-3-oxoisothiazolidin-2-yl)benzoyl]amino}benzoic acid (25)] |
| 1.5 µM | O=C(O)c1cccc(NC(=O)c2ccc(N3C(=O)CCS3(=O)=O)cc2Cl)c1 [3-{[2-chloro-4-(1,1-dioxido-3-oxoisothiazolidin-2-yl)benzoyl]amino}benzoic acid (31)] |
| 3.7 µM | CC1CS(=O)(=O)N(c2ccc(C(=O)Nc3cc(C(=O)O)ccc3O)c(Cl)c2)C1=O (configuration not stated) [3-{[2-chloro-4-(4-methyl-1,1-dioxido-3-oxoisothiazolidin-2-yl)benzoyl]amino}-4-hydroxybenzoic acid (37)] |
| 3.6 µM | CC1CS(=O)(=O)N(c2ccc(C(=O)Nc3cccc(C(=O)O)c3)c(Cl)c2)C1=O (configuration not stated) [3-{[2-chloro-4-(4-methyl-1,1-dioxido-3-oxoisothiazolidin-2-yl)benzoyl]amino}benzoic acid (35)] |
| 1.8 µM | O=C(O)c1cccc(NC(=O)c2ccc(N3C(=O)CCS3(=O)=O)cc2)c1 [3-{[4-(1,1-dioxido-3-oxoisothiazolidin-2-yl)benzoyl]amino}benzoic acid (21)] |
| 8 µM | CC1(C)CS(=O)(=O)N(c2ccc(C(=O)Nc3cccc(C(=O)O)c3)cc2)C1=O [3-{[4-(4,4-dimethyl-1,1-dioxido-3-oxoisothiazolidin-2-yl)benzoyl]amino}benzoic acid (28)] |
| 3.1 µM | CC1CS(=O)(=O)N(c2ccc(C(=O)Nc3cccc(C(=O)O)c3)cc2)C1=O (configuration not stated) [3-{[4-(4-methyl-1,1-dioxido-3-oxoisothiazolidin-2-yl)benzoyl]amino}benzoic acid (24)] |
| 16 µM | CC1CS(=O)(=O)N(c2ccc(C(=O)Nc3cc(C(=O)O)ccc3O)cc2)C1=O (configuration not stated) [4-hydroxy-3-{[4-(4-methyl-1,1-dioxido-3-oxoisothiazolidin-2-yl)benzoyl]amino}benzoic acid (26)] |
| 3 µM | O=C(O)c1ccc(NC(=O)c2ccc(N3C(=O)CCS3(=O)=O)cc2Cl)cc1O [4-{[2-chloro-4-(1,1-dioxido-3-oxoisothiazolidin-2-yl)benzoyl]amino}-2-hydroxybenzoic acid (33)] |
| > 30 µM | O=C(O)c1ccc(NC(=O)c2ccc(N3C(=O)CCS3(=O)=O)cc2Cl)cc1 [4-{[2-chloro-4-(1,1-dioxido-3-oxoisothiazolidin-2-yl)benzoyl]amino}benzoic acid (34)] |
| 3.5 µM | CC1CS(=O)(=O)N(c2ccc(C(=O)Nc3ccc(C(=O)O)c(O)c3)c(Cl)c2)C1=O (configuration not stated) [4-{[2-chloro-4-(4-methyl-1,1-dioxido-3-oxoisothiazolidin-2-yl)benzoyl]amino}-2-hydroxybenzoic acid (38)] |
| 14 µM | O=C(Nc1ccc(C(=O)O)c(O)c1)c1ccc(N2C(=O)CCS2(=O)=O)cc1 [4-{[4-(1,1-dioxido-3-oxoisothiazolidin-2-yl)benzoyl]amino}-2-hydroxybenzoic acid (23)] |
| > 30 µM | CC1(C)CS(=O)(=O)N(c2ccc(C(=O)Nc3ccc(C(=O)O)c(O)c3)cc2)C1=O [4-{[4-(4,4-dimethyl-1,1-dioxido-3-oxoisothiazolidin-2-yl)benzoyl]amino}-2-hydroxybenzoic acid (30)] |
| > 30 µM | CC1CS(=O)(=O)N(c2ccc(C(=O)NCCCC(=O)O)cc2)C1=O (configuration not stated) [4-{[4-(4-methyl-1,1-dioxido-3-oxoisothiazolidin-2-yl)benzoyl]amino}butanoic acid (42)] |
| 9 µM | O=C(O)c1cc(NC(=O)c2ccc(N3C(=O)CCS3(=O)=O)cc2Cl)ccc1O [5-{[2-chloro-4-(1,1-dioxido-3-oxoisothiazolidin-2-yl)benzoyl]amino}-2-hydroxybenzoic acid (32)] |
| 6 µM | CC1CS(=O)(=O)N(c2ccc(C(=O)Nc3ccc(O)c(C(=O)O)c3)c(Cl)c2)C1=O (configuration not stated) [5-{[2-chloro-4-(4-methyl-1,1-dioxido-3-oxoisothiazolidin-2-yl)benzoyl]amino}-2-hydroxybenzoic acid (36)] |
| 8 µM | O=C(Nc1ccc(O)c(C(=O)O)c1)c1ccc(N2C(=O)CCS2(=O)=O)cc1 [5-{[4-(1,1-dioxido-3-oxoisothiazolidin-2-yl)benzoyl]amino}-2-hydroxybenzoic acid (22)] |
| > 30 µM | CC1(C)CS(=O)(=O)N(c2ccc(C(=O)Nc3ccc(O)c(C(=O)O)c3)cc2)C1=O [5-{[4-(4,4-dimethyl-1,1-dioxido-3-oxoisothiazolidin-2-yl)benzoyl]amino}-2-hydroxybenzoic acid (29)] |
| > 30 µM | COC(=O)c1cc(NC(=O)c2ccc(N3C(=O)C(C)CS3(=O)=O)cc2Cl)ccc1O (configuration not stated) [Methyl 5-{[2-chloro-4-(4-methyl-1,1-dioxido-3-oxoisothiazolidin-2-yl)benzoyl]amino}-2-hydroxybenzoate (39)] |
| > 30 µM | CC1CS(=O)(=O)N(c2ccc(C(=O)NCCC(=O)O)cc2)C1=O (configuration not stated) [N-[4-(4-methyl-1,1-dioxido-3-oxoisothiazolidin-2-yl)benzoyl]-b-alanine (41)] |
| > 30 µM | CC1CS(=O)(=O)N(c2ccc(C(=O)NCC(=O)O)cc2)C1=O (configuration not stated) [N-[4-(4-methyl-1,1-dioxido-3-oxoisothiazolidin-2-yl)benzoyl]glycine (40)] |

Reference: BindingDB's records for doi:10.3109/14756366.2013.782024 (NAS of Ukraine, 2014)
